The text below walks through data of ChEMBL document CHEMBL1201862, “PubChem BioAssay data set” (2004).

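How tested: cells in 96-well plates exposed to compound for 48 hours at five concentrations. Here, GI50 denotes the concentration required for 50% inhibition of growth.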 The source made the active and inactive calls. Rule as the data show it: active = GI50 up to about 1.1 µM and inactive = higher.

Some test systems named below: A549; SNB-19; SK-MEL-2; SF-268; NCI/ADR-RES; K562; A498; HL-60; 786-0; MCF7; ACHN; MDA-MB-231; RXF 393; M14; MDA-MB-435; CCRF-CEM; SN12C; SF-539; NCI-H460; SK-OV-3.
Common to all, as to test: inhibition of tumour cell growth, NCI panel, 48 h

`CCc1n[nH]c(=O)n1/N=C(\C)c1ccccc1`: the GI50 in the test on A549, with SNB-19, with SK-MEL-2, with SF-268, in the test with NCI/ADR-RES and in the test on K562 was > 100 µM (inactive) in each case. The GI50 in the test on A498, in the test with HL-60, in the test with 786-0, with MCF7, in the test on ACHN and in the test on MDA-MB-231 was > 100 µM (inactive) in each case. Also, the GI50 in the test with RXF 393, with M14, in the test on MDA-MB-435, in the test with CCRF-CEM, in the test on SN12C and with SF-539 was > 100 µM (inactive) throughout.

Regarding `O=c1[nH]c2c(c(=O)[nH]1)SC(c1ccccc1)C2` (centres undefined), the GI50 in the test with A549 was > 100 µM (inactive); in the test with SNB-19 it was > 100 µM (inactive); in the test with SK-MEL-2, 93.8 µM (inactive); in the test with NCI-H460 it was > 100 µM (inactive); in the test on SF-268, > 100 µM (inactive); in the test with NCI/ADR-RES, > 100 µM (inactive). Moreover, the GI50 in the test on K562 is > 100 µM (inactive); in the test on A498, > 100 µM (inactive); in the test with HL-60, > 100 µM (inactive); in the test with 786-0, > 100 µM (inactive); in the test on MCF7, 94 µM (inactive); in the test with ACHN it was > 100 µM (inactive). For the same compound, the GI50 in the test with MDA-MB-231, in the test with RXF 393, with M14, in the test with MDA-MB-435, in the test with CCRF-CEM and with SF-539 was > 100 µM (inactive) throughout.

Regarding `O=C(O)C1(Nc2ccc(Cl)cc2)CCCC1`, the GI50 in the test with A549, with SNB-19, in the test on SK-MEL-2, in the test with SK-OV-3, in the test with NCI-H460 and with SF-268 was > 100 µM (inactive) throughout. Also, the GI50 was > 100 µM (inactive) in the test with NCI/ADR-RES; > 100 µM (inactive) with K562; > 100 µM (inactive) in the test with A498; 77.8 µM (inactive) in the test on HL-60; > 100 µM (inactive) in the test with 786-0; > 100 µM (inactive) with MCF7. Also, the GI50 with ACHN, in the test with MDA-MB-231, with RXF 393, in the test with M14, in the test on MDA-MB-435 and with CCRF-CEM was > 100 µM (inactive) in each case. In addition, in the test on SN12C, the GI50 is > 100 µM (inactive).

`CC(=O)C(N1CCCCC1)C(O)(C(F)(F)F)C(F)(F)F` (centres undefined): the GI50 in the test on A549 was > 100 µM (inactive); with SNB-19 it was > 100 µM (inactive); in the test on SK-OV-3 it was > 100 µM (inactive); with NCI-H460 it was 89.1 µM (inactive); in the test on NCI/ADR-RES it was > 100 µM (inactive); in the test with K562, 50.4 µM (inactive). Moreover, the GI50 with A498, with HL-60, with 786-0, with MCF7, in the test on ACHN and in the test on MDA-MB-231 was > 100 µM (inactive) in each case. Moreover, the GI50 in the test with RXF 393 was 38.5 µM (inactive); with M14, > 100 µM (inactive); with MDA-MB-435, > 100 µM (inactive); in the test on CCRF-CEM, 37.3 µM (inactive); with SF-539 it was > 100 µM (inactive).

On to `COC1C=C(NCC2(CO)CCC2)N=C(N)N1` (centres undefined), for which the GI50 in the test with A549, in the test with SNB-19, in the test with SK-MEL-2, in the test on SK-OV-3, with NCI-H460 and in the test with SF-268 was > 100 µM (inactive) in each case. In addition, the GI50 with NCI/ADR-RES is > 100 µM (inactive); in the test on K562, > 100 µM (inactive); in the test on A498, 95.1 µM (inactive); in the test on HL-60 it was > 100 µM (inactive); with 786-0 it was > 100 µM (inactive); with MCF7 it was 95.1 µM (inactive). Besides, the GI50 is 56.6 µM (inactive) in the test with MDA-MB-231; > 100 µM (inactive) in the test on RXF 393; > 100 µM (inactive) in the test with M14; > 100 µM (inactive) in the test with MDA-MB-435; > 100 µM (inactive) in the test with CCRF-CEM; > 100 µM (inactive) with SN12C.

Consider `CCOC(=O)CNC(=O)C(CSCC1C(=O)Nc2ccccc21)NC(=O)CCC(N)C(=O)OCC` (centres undefined), for which the GI50 with A549 is 2.34 µM (inactive); with SNB-19 it was 7.46 µM (inactive); in the test on SK-MEL-2 it was 1.87 µM (inactive); with NCI-H460, 3.28 µM (inactive); in the test with SF-268, 1.86 µM (inactive); with NCI/ADR-RES, 1.08 µM (active). Moreover, the GI50 was 0.242 µM (active) in the test with K562; 3.12 µM (inactive) in the test on A498; 2.36 µM (inactive) in the test on HL-60; 1.63 µM (inactive) in the test on 786-0; 1.07 µM (active) in the test on MCF7; 1.62 µM (inactive) in the test with ACHN. In addition, the GI50 in the test with MDA-MB-231 was 1.58 µM (inactive); in the test with RXF 393, 1.19 µM (inactive); in the test on M14 it was 1.84 µM (inactive); in the test with MDA-MB-435, 1.32 µM (inactive); in the test on CCRF-CEM it was 0.269 µM (active); in the test on SN12C, 1.52 µM (inactive). Besides, in the test on SF-539, the GI50 is 0.247 µM (active).

As for `CCOC(=O)C1=C(C)N(c2ccc(C)cc2)C2(O)C=CC(O)=C3C(=O)c4ccccc4C(=O)C312` (centres undefined), the GI50 in the test with A549 is 37.8 µM (inactive); in the test on SNB-19 it was 24.4 µM (inactive); in the test on SK-MEL-2, 37.1 µM (inactive); in the test on SK-OV-3, 35.7 µM (inactive); in the test with NCI-H460, 34.2 µM (inactive); in the test on SF-268, 45.2 µM (inactive). The GI50 in the test with NCI/ADR-RES is 8.24 µM (inactive); in the test with A498 it was 29.4 µM (inactive); in the test with HL-60, < 0.01 µM (active); in the test on 786-0, 33.9 µM (inactive); with MCF7, 23.3 µM (inactive); with ACHN, 22.7 µM (inactive). Besides, the GI50 in the test with MDA-MB-231 was 34.4 µM (inactive); with RXF 393, 28.8 µM (inactive); in the test with M14 it was 36.6 µM (inactive); with MDA-MB-435 it was 36.2 µM (inactive); in the test on CCRF-CEM, 5.05 µM (inactive); in the test with SN12C, 32.4 µM (inactive). In addition, the GI50 with SF-539 is 22.2 µM (inactive).

Regarding `Cc1ccccc1-n1c(=O)c2ncn(C3CCCO3)c2n(-c2ccccc2C)c1=S` (centres undefined), the GI50 in the test with A549, in the test with SNB-19, in the test with SK-MEL-2, with SK-OV-3, in the test on SF-268 and with NCI/ADR-RES was > 100 µM (inactive) each time. Further, the GI50 in the test with K562, in the test with A498, in the test on HL-60, in the test on 786-0, in the test with MCF7 and with ACHN was > 100 µM (inactive) each time. In addition, the GI50 in the test on MDA-MB-231, in the test on RXF 393, in the test on M14, with MDA-MB-435, with CCRF-CEM and with SN12C was > 100 µM (inactive) throughout. Besides, the GI50 in the test on SF-539 was > 100 µM (inactive).

Take `O=C(Nc1ccccc1)c1cc(S(=O)(=O)N2CCNNC2=O)c(S)cc1Cl`: the GI50 in the test with A549 was > 100 µM (inactive); with SNB-19 it was > 100 µM (inactive); in the test on SK-MEL-2, > 100 µM (inactive); with NCI-H460, > 100 µM (inactive); in the test on SF-268 it was > 100 µM (inactive); with NCI/ADR-RES it was 34.7 µM (inactive). In addition, the GI50 in the test with K562 is 84.9 µM (inactive); in the test with A498, > 100 µM (inactive); with HL-60, > 100 µM (inactive); in the test on 786-0 it was 47.6 µM (inactive); in the test with MCF7, > 100 µM (inactive); in the test on ACHN it was > 100 µM (inactive). For the same compound, the GI50 is 39 µM (inactive) with MDA-MB-231; 21.3 µM (inactive) in the test with RXF 393; > 100 µM (inactive) in the test with M14; > 100 µM (inactive) in the test with MDA-MB-435; 71.9 µM (inactive) in the test on CCRF-CEM; > 100 µM (inactive) in the test on SN12C. Further, the GI50 with SF-539 was > 100 µM (inactive).

On to `Nc1cc(CO)cc(Nc2c3ccccc3nc3ccccc23)c1`, for which the GI50 with A549 is 18.2 µM (inactive); with SK-MEL-2 it was 14.1 µM (inactive); in the test on SK-OV-3 it was 16 µM (inactive); with NCI-H460, 25.7 µM (inactive); with SF-268 it was 17.9 µM (inactive); with NCI/ADR-RES, 17.7 µM (inactive). Further, the GI50 was 14.2 µM (inactive) in the test on K562; 24.6 µM (inactive) in the test with A498; > 100 µM (inactive) with HL-60; 16.7 µM (inactive) with 786-0; 15.5 µM (inactive) in the test on MCF7; 17.2 µM (inactive) with ACHN. Also, the GI50 with MDA-MB-231 is 12.1 µM (inactive); in the test on RXF 393, 16.8 µM (inactive); with M14, 17.3 µM (inactive); in the test on MDA-MB-435, 17 µM (inactive); with CCRF-CEM it was 6.78 µM (inactive); in the test with SN12C, 18.9 µM (inactive). Besides, the GI50 in the test with SF-539 is 17.6 µM (inactive).

As for `NC(Cn1ccc(=O)c(O)c1)C(=O)O` (centres undefined) [MIMOSINE], the GI50 in the test on A549, in the test with SNB-19, in the test with SK-MEL-2, with SK-OV-3, with NCI-H460 and in the test on SF-268 was > 100 µM (inactive) in each case. Besides, the GI50 is > 100 µM (inactive) with NCI/ADR-RES; > 100 µM (inactive) in the test on A498; 81.5 µM (inactive) in the test on HL-60; > 100 µM (inactive) with 786-0; > 100 µM (inactive) in the test with MCF7; > 100 µM (inactive) in the test on ACHN. For the same compound, the GI50 in the test on MDA-MB-231 is > 100 µM (inactive); with RXF 393, > 100 µM (inactive); in the test with M14, > 100 µM (inactive); with MDA-MB-435, > 100 µM (inactive); in the test with CCRF-CEM, 33.7 µM (inactive); with SN12C, > 100 µM (inactive). For the same compound, in the test with SF-539, the GI50 was > 100 µM (inactive).
